Source: patent publication US8912121B2, “Herbicidal compositions comprising 4-amino-3-chloro-5-fluoro-6-(4-chloro-2-fluoro-3-methoxyphenyl)pyridine-2-carboxylic acid or a derivative thereof and certain PS II inhibitors” (Dow Agrosciences LLC, priority 2012, dated 2014)

Legend:
[1] = system: SINAR (Sinapis arvensis, wild mustard); experiment: Postemergence herbicidal activity of mixtures in cereal crops, greenhouse; type: in vivo, Sinapis arvensis L.
Procedure: (§1) Seeds of the desired test plant species were planted in Sun Gro MetroMix® 306 planting mixture, which typically has a pH of 6.0 to 6.8 and an organic matter content of about 30 percent, in plastic pots with a surface area of 103.2 square centimeters (cm^2). When required to ensure good germination and healthy plants, a fungicide treatment and/or other chemical or physical treatment was applied. The plants were grown for 7-36 days in a greenhouse with an approximate 14 hour photoperiod which was maintained at about 18° C. during the day and about 17° C. during the night. Nutrients and water were added on a regular basis and supplemental lighting was provided with overhead metal halide 1000-Watt lamps as necessary. The plants were employed for testing when they reached the second or third true leaf stage.
(§2) Treatments consisted of the benzyl ester of 4-amino-3-chloro-5-fluoro-6-(4-chloro-2-fluoro-3-methoxy-phenyl)pyridine-2-carboxylic acid (Compound A), formulated as an SC, a second cereal herbicide alone and then both in combination.
(§3) Other herbicidal components were applied on an active ingredient basis and included PSII-inhibiting herbicides.
(§4) Measured aliquots of benzyl ester of 4-amino-3-chloro-5-fluoro-6-(4-chloro-2-fluoro-3-methoxy-phenyl)pyridine-2-carboxylic acid (Compound A) were placed in 25 milliliter (mL) glass vials and diluted in a volume of 1.25% (v/v) Agri-Dex® crop oil concentrate to obtain stock solutions. Compound requirements are based upon a 12 mL application volume at a rate of 187 liters per hectare (L/ha). Spray solutions of the second cereal herbicide and experimental compound mixtures were prepared by adding the stock solutions to the appropriate amount of dilution solution to form 12 mL spray solution with active ingredients in two- and three-way combinations. Formulated compounds were applied to the plant material with an overhead Mandel track sprayer equipped with an 8002E nozzle calibrated to deliver 187 L/ha over an application area of 0.503 square meters (m^2) at a spray height of 18 inches (46 cm) above average plant canopy. Control plants were sprayed in the same manner with the solvent blank.
(§5) The treated plants and control plants were placed in a greenhouse as described above and watered by sub-irrigation to prevent wash-off of the test compounds. After 20-22 days, the condition of the test plants as compared with that of the control plants was determined visually and scored on a scale of 0 to 100 percent where 0 corresponds to no injury and 100 corresponds to complete kill.
Colby's equation was used to determine the herbicidal effects expected from the mixtures (Colby, S. R. 1967. Calculation of the synergistic and antagonistic response of herbicide combinations. Weeds 15:20-22).
The following equation was used to calculate the expected activity of mixtures containing two active ingredients, A and B: Expected=A+B−(A×B/100)

[2] = system: ECHCG (Echinochloa crus-galli, barnyardgrass); experiment: Pre-emergence soil-applied mixtures, greenhouse; type: in vivo, Echinochloa crus-galli (L.) P. Beauv.
Description: (§6) Seeds or nutlets of the desired test plant species were planted in a soil matrix prepared by mixing a loam soil (32 percent silt, 23 percent clay, and 45 percent sand, with a pH of about 6.5 and an organic matter content of about 1.9 percent) and calcareous grit in an 80 to 20 ratio. The soil matrix was contained in plastic pots with a volume of 1 quart and a surface area of 83.6 square centimeters (cm^2).
(§7) Treatments consisted of the benzyl ester of 4-amino-3-chloro-5-fluoro-6-(4-chloro-2-fluoro-3-methoxy-phenyl)pyridine-2-carboxylic acid (compound A) formulated as an SC (suspension concentrate) and various herbicidal components alone and in combination. Forms of compound A were applied on an acid equivalent basis.
(§8) Other herbicidal components were applied on an acid equivalent or active ingredient basis and included the PSII-inhibiting herbicides, atrazine formulated as Atrazine® 90WDG, metribuzin formulated as Metribuzin 75DF, simazine formulated as Princep Caliber 90, tebuthiuron formulated as Spike 80DF, cyanazine (technical grade material), hexazinone (technical grade material), linuron (technical grade material), terbuthylazine (technical grade material), and diuron formulated as Diuron 4L.
(§9) Treatment requirements were calculated based upon the rates being tested, the concentration of active ingredient or acid equivalent in the formulation, and a 12 mL application volume at a rate of 187 L/ha.
(§10) For treatments comprised of formulated compounds, measured amounts of compounds were placed individually in 25 mL glass vials and diluted in a volume of 1.25% (v/v) Agri-Dex® crop oil concentrate (COC) to obtain 12× stock solutions. […] Application solutions were prepared by adding an appropriate amount of each stock solution (e.g., 1 mL) and diluted to the appropriate final concentrations with the addition of 10 mL of an aqueous mixture of 1.25% (v/v) COC so that the final spray solutions contained 1.25% (v/v) COC.
For treatments comprised of technical compounds, weighed amounts can be placed individually in 25 mL glass vials and dissolved in a volume of 97:3 (v/v) acetone/DMSO to obtain 12× stock solutions. […]
For treatments comprised of formulated and technical compounds, weighed amounts of the technical materials can be placed individually in 25 mL glass vials and dissolved in a volume of 97:3 (v/v) acetone/DMSO to obtain 12× stock solutions, and measured amounts of the formulated compounds can be placed individually in 25 mL glass vials and diluted in a volume of 1.5% (v/v) COC or water to obtain 12× stock solutions. […]

[3] = system: CHEAL (Chenopodium album, common lambsquarters); experiment: Postemergence herbicidal activity of mixtures in cereal crops, greenhouse; type: in vivo, Chenopodium album L.
Procedure: as §1, §2, §3, §4, §5
Colby's equation was used to determine the herbicidal effects expected from the mixtures (Colby, S. R. 1967. Calculation of the synergistic and antagonistic response of herbicide combinations. Weeds 15:20-22). […]

[4] = system: ABUTH (Abutilon theophrasti, velvetleaf); experiment: Pre-emergence soil-applied mixtures, greenhouse; type: in vivo, Abutilon theophrasti Medik.
Description: as §6, §7, §8, §9, §10
For treatments comprised of technical compounds, weighed amounts can be placed individually in 25 mL glass vials and dissolved in a volume of 97:3 (v/v) acetone/DMSO to obtain 12× stock solutions. […] Application solutions can be prepared by adding an appropriate amount of each stock solution (e.g., 1 mL) and diluted to the appropriate final concentrations with the addition of 10 mL of an aqueous mixture of 1.5% (v/v) COC so that the final spray solutions contain 1.25% (v/v) COC. When technical materials are used, the concentrated stock solutions can be added to the spray solutions so that the final acetone and DMSO concentrations of the application solutions are 16.2% and 0.5%, respectively.
For treatments comprised of formulated and technical compounds, weighed amounts of the technical materials can be placed individually in 25 mL glass vials and dissolved in a volume of 97:3 (v/v) acetone/DMSO to obtain 12× stock solutions, and measured amounts of the formulated compounds can be placed individually in 25 mL glass vials and diluted in a volume of 1.5% (v/v) COC or water to obtain 12× stock solutions. […] Application solutions can be prepared by adding an appropriate amount of each stock solution (e.g., 1 mL) and diluted to the appropriate final concentrations with the addition of an appropriate amount of an aqueous mixture of 1.5% (v/v) COC so that the final spray solutions contain 1.25% (v/v) COC. […]

[5] = Compound A Benzyl Ester 16 g ae/ha
[6] = Compound A Benzyl Ester 32 g ae/ha

In the case of `COc1c(Cl)ccc(-c2nc(C(=O)OCc3ccccc3)c(Cl)c(N)c2F)c1F` [Compound A Benzyl Ester, benzyl ester of 4-amino-3-chloro-5-fluoro-6-(4-chloro-2-fluoro-3-methoxy-phenyl)pyridine-2-carboxylic acid], the “Visual Weed Control (%)-21 DAA SINAR Obs” value ([1]; Compound A Benzyl Ester 2.5 g ai/ha, Table 21) is reported as 70%, the “Visual Weed Control (%)-21 DAA SINAR Obs” value ([1]; Compound A Benzyl Ester 2.5 g ai/ha, Table 22) is reported as 70% and the “Visual Weed Control (%)-21 DAA SINAR Obs” value ([1]; Compound A Benzyl Ester 5 g ai/ha, Table 21) is reported as 73%. The “Visual Weed Control (%)-21 DAA SINAR Obs” value ([1]; Compound A Benzyl Ester 5 g ai/ha, Table 22) was 73%, the “Visual Weed Control (%)-28 DAA ECHCG Obs” value [2, 5] was 0% and the “Visual Weed Control (%)-28 DAA ECHCG Obs” value [2, 6] was 0%. For the same molecule, the “Visual Weed Control (%)-21 DAA CHEAL Obs” value ([3]; Compound A Benzyl Ester 2.5 g ai/ha) was 50%, the “Visual Weed Control (%)-21 DAA CHEAL Obs” value ([3]; Compound A Benzyl Ester 5 g ai/ha) was 58% and the “Visual Weed Control (%)-29 DAA ABUTH Obs” value [4, 5] was 65%. The “Visual Weed Control (%)-29 DAA ABUTH Obs” value [4, 6] was 93%.
